Results: publication PMC6539525, “Design, Synthesis, and Mechanism of Dihydroartemisinin–Coumarin Hybrids as Potential Anti-Neuroinflammatory Agents” (Molecules, 2019)
Read-outs that look alike come from different tables or passages of the source.

What was measured:
[1] = MTT cytotoxicity in N9 cells; type: cell-based, murine; conditions: mouse, N9 microglial cells, cytotoxic activity
Method: (§1) The anti-neuroinflammatory activity of DCH was evaluated and then the representative compounds were selected for the further study. […] In addition, in order to exclude the death influence, MTT-IC20 of all the compounds were measured. […] The exact reason was still unclear, but we supposed that it might be related to the homeostasis of cells. The tumor cells actually were always in hypoxia condition, in which DCH could promote the cytotoxic activity against tumor cells. In brief, DCH could reduce the release of NO caused by LPS-induced microglial cells.
(§2) When the adherent cells reached 80% confluence, the culture medium was discarded. The cells were digested by trypsin and collected after centrifugation. The fresh culture medium was gently blown into it to form single-cell suspension. Cell suspension will be diluted to 1.5–3 × 10^4 cells/mL. Each hole of 96-well plates was added 100 μL cell suspension and incubated for 24 h (5% CO2; 37 °C). Then the holes were added different concentrations of tested compounds. The early screening concentration is set to 100 μM, 50 μM, 25 μM, 12.5 μM, and 6.25 μM. Three replicates were made for each concentration of the tested compounds. After the cells were grown for 96h, 20 μL MTT (5 mg/mL) was added to each well and incubated for 4 h. The medium was discarded and each well was added 100 μL DMSO to dissolve the formazan blue. Absorbance was measured at 570 nm with a microplate reader (Synergy-HT, BioTek Instruments, Winooski, VT, USA).
(§3) N9 cells, which were in the logarithmic phase, were incubated for 24 h by adherent culture. Subsequently, the medium was changed to new one without serum. The cells were treated with different concentration of tested compounds. After specific time in the LPS condition, the supernatants were collected and analyzed.

A549 cells = experiment: MTT cytotoxicity in A549 cells; type: cell-based; conditions: Homo sapiens
Method: (§4) As the anti-neuroinflammatory agents for cancer patients, all newly synthesized compounds were evaluated in vitro for antitumor activity against human breast cancer cell line MDA-MB-231, colorectal cancer cells HT-29 and HCT-116, and lung cancer cell line A549 by using the standard MTT method, respectively. Doxorubicin (DOX) and DHA were used as the reference standard. Additionally, owing to the rapid proliferation, the tumor cells actually was always in hypoxia condition. Therefore, the in vitro cytotoxicity was evaluated in two different conditions (hypoxia and normoxia).
(§5) After recovery, the cells were cultured in 96-well plates for 24 h at 37 °C in a humidified atmosphere with 95% air and 5% CO2. After treated with different tested compounds, the hypoxia groups were placed in a sealed hypoxia incubator chamber (Stemcell Technologies, Inc., Vancouver, BC, Canada) filled with 5% CO2 and 95% N2 for 24 h, and then transferred to the incubator chamber filled with air for 72 h. On the contrary, the normoxia groups were cultured under air condition for 96h.
(§6) Cancer cells HT-29 (Human Colorectal Adenocarcinoma cell line), MDA-MB-231 (Human Breast Cancer cell line), HCT-116 (Human Colorectal Carcinoma cell line), and A549 (Human Lung Adenocarcinomic cell line) were from ATCC.
as §2
(§7) Hypoxia condition: The cells were treated with different concentration of tested compounds, placed in hypoxia chamber (Catalog Number 27310, Stemcell Technologies, Inc., Vancouver, BC, Canada), and incubated for 24 h ([…]; 37 °C). Then the cells were placed in normoxia condition (5% CO2; 37 °C) and incubated for 72 h.

HCT-116 cells = experiment: MTT cytotoxicity in HCT-116 cells; type: cell-based; conditions: Homo sapiens
Method: as §4, §5, §6, §2, §7

[2] = tested on: NO release of LPS-induced microglial N9 cells; experiment: Inhibition of NO release in LPS-induced N9 cells (Griess); type: cell-based, murine; conditions: Mus musculus, 1 μg/mL LPS for 48 h, NO level in medium
Method: as §1, §3
The nitrite levels in medium were determined by Griess reaction. The absorbance was measured at 540 nm using a microplate reader.

MDA-MB-231 cells = experiment: MTT cytotoxicity in MDA-MB-231 cells; type: cell-based; conditions: Homo sapiens
Method: as §4, §5, §6, §2, §7

HT-29 cells = experiment: MTT cytotoxicity in HT-29 cells; type: cell-based, Human; conditions: Homo sapiens, MTT
Method: as §4
as §5, with “On the contrary, the normoxia groups were cultured under air condition for 96h.” left out
as §6
as §2, with “After the cells were grown for 96h, 20 μL MTT (5 mg/mL) was added to each well and incubated for 4 h.” left out, “USA). […]” for “USA).”

[3] = A549, hypoxia 24 h then normoxia 72 h, read-out: IC50 A549 Hypoxia
[4] = A549, normoxia 96 h, read-out: IC50 A549 Normoxia
[5] = HCT-116, hypoxia 24 h then normoxia 72 h, read-out: IC50 HCT-116 Hypoxia
[6] = HCT-116, normoxia 96 h, read-out: IC50 HCT-116 Normoxia
[7] = MDA-MB-231, hypoxia 24 h then normoxia 72 h, read-out: IC50 MDA-MB-231 Hypoxia
[8] = MDA-MB-231, normoxia 96 h, read-out: IC50 MDA-MB-231 Normoxia
[9] = HT-29, hypoxia 24 h then normoxia 72 h, read-out: IC50 HT-29 Hypoxia
[10] = HT-29, normoxia 96 h, read-out: IC50 HT-29 Normoxia

Row | SMILES | melting point [°C] | IC20 [1] [µM] | IC50 (A549 cells; [3]) [µM] | IC50 (A549 cells; [4]) [µM] | IC50 (HCT-116 cells; [5]) [µM] | IC50 (HCT-116 cells; [6]) [µM] | IC50 [2] [µM] | IC50 (MDA-MB-231 cells; [7]) [µM] | IC50 (MDA-MB-231 cells; [8]) [µM] | IC50 (HT-29 cells; [9]) [µM] | IC50 (HT-29 cells; [10]) [µM]
1 | C[C@H]1[C@@H](OCc2cn(Cc3cc4ccccc4oc3=O)nn2)O[C@@H]2O[C@@]3(C)CC[C@H]4[C@H](C)CC[C@@H]1[C@@]24OO3 [1a, 3-((4-((10S)-dihydroartemisininoxy)methyl-1H-1,2,3-triazol-1-yl)-methyl)-2H-1-chromen-2-one] | 73 to 75 | > 10 | 53.9 | 83.5 | 49.8 | 48.9 | 1.46 | 30.5 | 65 | 14.3 | 18.4
2 | C[C@H]1[C@@H](OCc2cn(Cc3cc4cc(Br)ccc4oc3=O)nn2)O[C@@H]2O[C@@]3(C)CC[C@H]4[C@H](C)CC[C@@H]1[C@@]24OO3 [1b, 6-bromo-3-((4-((10S)-dihydroartemisininoxy)methyl-1H-1,2,3-triazol-1-yl)-methyl)-2H-1-chromen-2-one] | 78 to 80 | > 10 | > 100 | > 100 | > 100 | > 100 | > 10 | > 100 | > 100 | 13.1 | 21.4
3 | C[C@H]1[C@@H](OCc2cn(Cc3cc4cc(Cl)ccc4oc3=O)nn2)O[C@@H]2O[C@@]3(C)CC[C@H]4[C@H](C)CC[C@@H]1[C@@]24OO3 [1c, 6-chloro-3-((4-((10S)-dihydroartemisininoxy)methyl-1H-1,2,3-triazol-1-yl)-methyl)-2H-1-chromen-2-one] | 93 to 95 | > 10 | 48.7 | 73.5 | 40.4 | 60.3 | 5.33 | 32.3 | > 100 | 26.4 | 35.4
4 | C[C@H]1[C@@H](OCc2cn(Cc3cc4cc(Cl)cc(Cl)c4oc3=O)nn2)O[C@@H]2O[C@@]3(C)CC[C@H]4[C@H](C)CC[C@@H]1[C@@]24OO3 [1d, 6,8-dichloro-3-((4-((10S)-dihydroartemisininoxy)methyl-1H-1,2,3-triazol-1-yl)-methyl)-2H-1-chromen-2-one] | 113 to 115 | > 10 | 45.4 | 53.3 | 48.6 | 60 | 1.6 | 33.9 | 68.9 | 13.3 | 14.9
5 | C[C@H]1[C@@H](OCc2cn(Cc3cc4cc(Br)cc(Br)c4oc3=O)nn2)O[C@@H]2O[C@@]3(C)CC[C@H]4[C@H](C)CC[C@@H]1[C@@]24OO3 [1e, 6,8-dibromo-3-((4-((10S)-dihydroartemisininoxy)methyl-1H-1,2,3-triazol-1-yl)-methyl)-2H-1-chromen-2-one] | 103 to 105 | > 10 | 59.8 | > 100 | > 100 | 54.5 | 0.48 | 45.5 | 77.9 | 26.9 | 15.3
6 | C[C@H]1[C@@H](OCCc2cn(Cc3cc4ccccc4oc3=O)nn2)O[C@@H]2O[C@@]3(C)CC[C@H]4[C@H](C)CC[C@@H]1[C@@]24OO3 [2a, 3-((4-(2-((10S)-dihydroartemisininoxy)ethyl)-1H-1,2,3-triazol-1-yl)-methyl)-2H-1-chromen-2-one] | 143 to 145 | > 10 | > 100 | > 100 | > 100 | > 100 | 0.97 | > 100 | > 100 | 19.4 | > 100
7 | C[C@H]1[C@@H](OCCc2cn(Cc3cc4cc(Cl)cc(Cl)c4oc3=O)nn2)O[C@@H]2O[C@@]3(C)CC[C@H]4[C@H](C)CC[C@@H]1[C@@]24OO3 [2d, 6,8-dichloro-3-((4-(2-((10S)-dihydroartemisininoxy)ethyl)-1H-1,2,3-triazol-1-yl)-methyl)-2H-1-chromen-2-one] | 101 to 103 | > 10 | 69.7 | 96.5 | 46.5 | 53.2 | 1.35 | 47.9 | 88.5 | 30.8 | 19.5
8 | C[C@H]1[C@@H](OCCc2cn(Cc3cc4cc(Br)cc(Br)c4oc3=O)nn2)O[C@@H]2O[C@@]3(C)CC[C@H]4[C@H](C)CC[C@@H]1[C@@]24OO3 [2e, 6,8-dibromo-3-((4-(2-((10S)-dihydroartemisininoxy)ethyl)-1H-1,2,3-triazol-1-yl)-methyl)-2H-1-chromen-2-one] | 93 to 95 | > 10 | 79.4 | > 100 | 86.5 | 94.2 | 0.94 | 44.1 | > 100 | 13.9 | 38.5
9 | Cc1cc(C)c2c(OCc3cn(CCO[C@H]4O[C@@H]5O[C@@]6(C)CC[C@H]7[C@H](C)CC[C@@H]([C@H]4C)[C@@]57OO6)nn3)cc(=O)oc2c1 [5l] | 111 to 113 | 7.13 | > 100 | > 100 | > 100 | > 100 | 3.36 | > 100 | > 100 | 3.76 | 2.78
10 | Cc1cc(C)c2oc(=O)cc(OCc3cn(CCO[C@H]4O[C@@H]5O[C@@]6(C)CC[C@H]7[C@H](C)CC[C@@H]([C@H]4C)[C@@]57OO6)nn3)c2c1 [5m] | 111 to 113 | 1.04 | 1.28 | 2.67 | 44.8 | 62.8 | 1.08 | 13 | 14.2 | 5.89 | 12.9
11 | Cc1cccc2c(OCc3cn(CCO[C@H]4O[C@@H]5O[C@@]6(C)CC[C@H]7[C@H](C)CC[C@@H]([C@H]4C)[C@@]57OO6)nn3)cc(=O)oc12 [5o] | 84 to 86 | > 10 | 45.1 | 50.4 | 38.5 | 29.7 | 0.57 | 16.5 | 37.4 | 21.2 | 16.1
